From ChEMBL document CHEMBL1130795, “Synthesis and SAR of a novel, potent and structurally simple LTD4 antagonist of the quinoline class” (Bioorg Med Chem Lett, 1998)
Active and inactive are the calls of the source. The calls are words filed in the database; no cut-off is given here.

Key:
[1] = molecular target: Cysteinyl leukotriene receptor 1 (Cavia porcellus); experiment: In vitro for antagonistic activity against LTD4 receptor in guinea pig ileum
[2] = molecular target: T1, Cysteinyl leukotriene receptor 1 (Cavia porcellus) (UniProt Q2NNR5); experiment: In vitro antagonistic activity against LTD4 in guinea pig ileum at 240 nM; assay type: functional, tissue-based
T1 sequence (whole entry): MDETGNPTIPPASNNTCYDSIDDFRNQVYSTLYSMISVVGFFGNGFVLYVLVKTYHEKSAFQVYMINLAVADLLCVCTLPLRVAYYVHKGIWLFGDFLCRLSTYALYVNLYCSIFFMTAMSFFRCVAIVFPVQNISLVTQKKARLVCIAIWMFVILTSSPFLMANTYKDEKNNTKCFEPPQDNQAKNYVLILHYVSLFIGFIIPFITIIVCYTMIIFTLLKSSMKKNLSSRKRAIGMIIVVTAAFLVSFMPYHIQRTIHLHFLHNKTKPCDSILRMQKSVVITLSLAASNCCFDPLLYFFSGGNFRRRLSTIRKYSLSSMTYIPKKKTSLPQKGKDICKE

[3] = system: Cavia porcellus; experiment: Compound was evaluated in vivo for LTD4-induced bronchospasm in guinea pig; assay type: functional
[4] = molecular target: T2, Cysteinyl leukotriene receptor 1 (Cavia porcellus, UniProt Q2NNR5); experiment: In vitro inhibition of [3H]LTD4 binding to guinea pig lung membrane; assay type: tissue-based
T2 sequence (Q2NNR5 whole entry): T1 sequence (whole entry)

[5] = system: Cavia porcellus; experiment: Compound was evaluated in vivo for LTD4-induced bronchospasm in guinea pig; IA means inactive at 10 mg/kg p.o.; assay type: functional, organism-based; design: dose 10 mg/kg
[6] = molecular target: T1, Cysteinyl leukotriene receptor 1 (Cavia porcellus); experiment: In vitro antagonistic activity against LTD4 in guinea pig ileum at 200 nM; assay type: functional, tissue-based

Row | SMILES | IC50 [1] [nM] | further results
1 | O=C(O)CCC(=O)Nc1cccc(OCc2ccc3ccc(F)cc3n2)c1 | 200 | –
2 | CCC(CC)(CC(=O)Nc1cccc(SCc2ccc3ccc(F)cc3n2)c1)C(=O)O | 4 | –
3 | CCC(CC)(CC(=O)Nc1cccc(OCc2ccc3ccc(O)cc3n2)c1)C(=O)O | – | inhibition [2]: 0%
4 | CCCCC(CCCC)(CC(=O)Nc1cccc(OCc2ccc3ccc(F)cc3n2)c1)C(=O)O | 1 | –
5 | CCC(C)(CC(=O)Nc1cccc(OCc2ccc3ccc(F)cc3n2)c1)C(=O)O (configuration not stated) | 6.4 | –
6 | CCC(CC)(CC(=O)Nc1cccc(OCc2ccc3cc4c(cc3n2)CCC4)c1)C(=O)O | 9 | –
7 | CC(C)(CC(=O)Nc1cccc(OCc2ccc3ccc(F)cc3n2)c1)C(=O)O | 1.4 | –
8 | O=C(CC1(C(=O)O)CCCC1)Nc1cccc(OCc2ccc3ccc(F)cc3n2)c1 | 10 | –
9 | CCC(CC)(CC(=O)Nc1cccc(OCc2ccc3cc(C)c(C)cc3n2)c1)C(=O)O | 11 | –
10 | O=C(CC1(C(=O)O)CCCCC1)Nc1cccc(OCc2ccc3ccc(F)cc3n2)c1 | 7.3 | –
11 | CCC(CC)(CC(=O)Nc1cccc(/C=C/c2ccc3ccc(F)cc3n2)c1)C(=O)O | 0.4 | –
12 | CCC(CC)(CC(=O)O)C(=O)Nc1cccc(OCc2ccc3ccc(F)cc3n2)c1 | 140 | –
13 | CCC(CC)(CC(=O)Nc1cccc(OCc2ccc3ccc(OCc4ccccc4)cc3n2)c1)C(=O)O | – | inhibition [6]: 0%
14 | COc1cc(C(=O)NS(=O)(=O)c2ccccc2C)ccc1Cc1cn(C)c2ccc(NC(=O)OC3CCCC3)cc12 [ZAFIRLUKAST] | – | ED50 [3]: 0.55 mg/kg
15 | CCCC(CCC)(CC(=O)Nc1cccc(OCc2ccc3ccc(F)cc3n2)c1)C(=O)O | 2 | –
16 | CCC(CC)(CC(=O)Nc1cccc(OCc2ccc3cc(F)c(F)cc3n2)c1)C(=O)O | 0.5 | –

Continued, in another order:

Row | IC50 [1] [nM] | SMILES | further results
17 | 24 | CCC(CC)(CC(=O)Nc1cccc(OCc2ccc3cc(C)ccc3n2)c1)C(=O)O | –
18 | 11 | CCC(CC)(CC(=O)Nc1cccc(OCc2ccc3ccc(C)cc3n2)c1)C(=O)O | –
19 | 9 | CCC(CC)(CC(=O)Nc1cccc(OCc2ccc3ccc(OC(F)(F)F)cc3n2)c1)C(=O)O | –
20 | 0.3 | CCC(CC)(CC(=O)Nc1cccc(OCc2ccc3c(F)cccc3n2)c1)C(=O)O | –
21 | 0.8 | CCC(CC)(CC(=O)Nc1cccc(OCc2ccc3ccc(Cl)cc3n2)c1)C(=O)O | ED50 [3]: 0.11 mg/kg; IC50 [4]: 64 nM
22 | 3900 | CCC(CC)(CC(=O)Nc1cccc(COc2ccc3ccccc3n2)c1)C(=O)O | –
23 | 80 | CCC(CC)(CC(=O)Nc1cccc(OCc2ccc3ccc(OC)cc3n2)c1)C(=O)O | –
24 | 3 | CCC(CC)(CC(=O)Nc1cccc(OCc2ccc3ccc(C(F)(F)F)cc3n2)c1)C(=O)O | ED50 [5]: inactive
25 | 6 | CCC(CC)(CC(=O)Nc1cccc(OCc2ccc3cccc(F)c3n2)c1)C(=O)O | –
26 | 2500 | CCC(CC)(CC(=O)Nc1cccc(OCc2ccc3ccc(C(C)=O)cc3n2)c1)C(=O)O | –
27 | 0.2 | CCC(CC)(CC(=O)Nc1cccc(OCc2ccc3ccc(F)cc3n2)c1)C(=O)O | ED50 [3]: 0.07 mg/kg; IC50 [4]: 6 nM
28 | 0.9 | CCC(CC)(CC(=O)Nc1cccc(OCc2ccc3ccccc3n2)c1)C(=O)O | ED50 [3]: 0.42 mg/kg; IC50 [4]: 9 nM
29 | 2 | CCC(CC)(CC(=O)Nc1cccc(OCc2ccc3cc(F)ccc3n2)c1)C(=O)O | –
30 | 4 | CCC(CC)(CC(=O)Nc1cccc(OCc2ccc3ccc(Br)cc3n2)c1)C(=O)O | –
